In ChEMBL document CHEMBL1132094, “Human telomerase inhibition by substituted acridine derivatives” (Bioorg Med Chem Lett, 1999):
pIC50: −log10 of the molar value. Active and inactive are the calls of the source. The rule behind the calls is not given here.

Columns and labels:
[1] = biological target: DNA polymerase I, thermostable (Thermus aquaticus) (UniProt P19821); assay: Ability to inhibit Taq polymerase in vitro at a concentration of 50 uM; NI means No inhibition
CH1 = assay: In vitro cytotoxicity against human ovarian carcinoma cell line CH1 using sulforhodamine B (SRB) assay; format: functional, cell-based
[2] = biological target: Telomerase reverse transcriptase (Homo sapiens, UniProt O14746); assay: Ability to inhibit human telomerase in a modified cell-free TRAP assay using extracts from A2780 cell line
SK-OV-3 = assay: In vitro cytotoxicity against human ovarian carcinoma cell line SKOV-3 using sulforhodamine B (SRB) assay; format: functional, cell-based
A2780 = assay: In vitro cytotoxicity against human ovarian carcinoma cell line A2780 using sulforhodamine B (SRB) assay; format: functional, cell-based
[3] = biological target: DNA polymerase I, thermostable (Thermus aquaticus) (UniProt P19821); assay: Ability to inhibit Taq polymerase in vitro at a concentration of 20 uM; NI means No inhibition
[4] = biological target: DNA polymerase I, thermostable (Thermus aquaticus) (UniProt P19821); assay: Ability to inhibit Taq polymerase in vitro at a concentration of 10 uM; NI means No inhibition

Sequence of Telomerase reverse transcriptase (O14746 whole entry): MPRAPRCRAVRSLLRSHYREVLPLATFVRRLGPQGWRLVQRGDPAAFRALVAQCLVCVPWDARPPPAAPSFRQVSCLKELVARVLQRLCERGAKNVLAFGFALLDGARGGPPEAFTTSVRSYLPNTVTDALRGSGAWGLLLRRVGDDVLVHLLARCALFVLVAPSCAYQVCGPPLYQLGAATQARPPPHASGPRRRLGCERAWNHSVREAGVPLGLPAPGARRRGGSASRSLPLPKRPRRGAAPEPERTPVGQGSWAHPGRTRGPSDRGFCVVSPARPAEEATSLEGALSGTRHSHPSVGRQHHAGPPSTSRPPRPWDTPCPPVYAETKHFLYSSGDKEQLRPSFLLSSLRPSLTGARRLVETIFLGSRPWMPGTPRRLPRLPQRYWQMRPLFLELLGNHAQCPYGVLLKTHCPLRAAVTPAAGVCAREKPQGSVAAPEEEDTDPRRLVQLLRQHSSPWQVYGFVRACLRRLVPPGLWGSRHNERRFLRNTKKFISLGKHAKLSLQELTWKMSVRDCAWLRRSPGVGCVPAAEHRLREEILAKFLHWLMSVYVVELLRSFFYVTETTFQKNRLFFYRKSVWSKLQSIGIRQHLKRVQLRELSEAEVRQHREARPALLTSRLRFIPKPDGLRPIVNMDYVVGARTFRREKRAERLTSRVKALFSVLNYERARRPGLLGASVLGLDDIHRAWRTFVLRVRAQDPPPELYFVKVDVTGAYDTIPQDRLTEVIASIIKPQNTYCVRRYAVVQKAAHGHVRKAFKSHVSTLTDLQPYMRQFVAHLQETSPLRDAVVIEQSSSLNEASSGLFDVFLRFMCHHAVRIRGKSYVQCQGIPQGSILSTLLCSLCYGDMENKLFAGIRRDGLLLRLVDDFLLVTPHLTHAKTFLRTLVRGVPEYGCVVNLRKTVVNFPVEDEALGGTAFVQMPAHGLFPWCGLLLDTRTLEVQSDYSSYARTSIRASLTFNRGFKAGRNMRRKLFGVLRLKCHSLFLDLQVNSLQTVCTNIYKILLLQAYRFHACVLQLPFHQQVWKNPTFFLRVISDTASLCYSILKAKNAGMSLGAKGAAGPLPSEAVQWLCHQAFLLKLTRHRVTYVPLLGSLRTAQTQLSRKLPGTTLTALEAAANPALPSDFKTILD
Sequence of DNA polymerase I, thermostable (Thermus aquaticus) (P19821 whole entry): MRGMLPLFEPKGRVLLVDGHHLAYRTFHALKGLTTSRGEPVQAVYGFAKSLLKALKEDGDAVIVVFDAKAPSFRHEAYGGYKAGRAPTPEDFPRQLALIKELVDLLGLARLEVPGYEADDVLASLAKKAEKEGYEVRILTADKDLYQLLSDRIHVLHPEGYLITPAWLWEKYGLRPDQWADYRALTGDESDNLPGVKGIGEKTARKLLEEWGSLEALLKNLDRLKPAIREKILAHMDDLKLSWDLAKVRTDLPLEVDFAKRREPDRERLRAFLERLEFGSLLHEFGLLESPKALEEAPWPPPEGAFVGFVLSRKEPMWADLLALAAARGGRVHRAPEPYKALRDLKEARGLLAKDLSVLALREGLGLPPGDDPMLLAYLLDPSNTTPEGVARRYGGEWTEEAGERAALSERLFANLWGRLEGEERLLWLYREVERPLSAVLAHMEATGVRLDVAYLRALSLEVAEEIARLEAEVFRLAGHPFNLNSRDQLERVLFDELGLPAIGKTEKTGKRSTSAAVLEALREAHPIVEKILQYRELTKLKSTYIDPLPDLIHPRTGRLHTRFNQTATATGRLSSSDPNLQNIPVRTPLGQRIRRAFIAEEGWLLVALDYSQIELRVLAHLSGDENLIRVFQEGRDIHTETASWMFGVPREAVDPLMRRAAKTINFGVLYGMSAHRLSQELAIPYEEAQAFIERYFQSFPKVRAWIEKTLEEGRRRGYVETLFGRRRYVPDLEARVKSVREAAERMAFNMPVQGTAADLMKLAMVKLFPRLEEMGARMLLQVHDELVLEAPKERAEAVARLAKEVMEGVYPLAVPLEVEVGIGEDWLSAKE

Question: `O=C(CCN1CCCCC1CO)Nc1ccc2cc3ccc(NC(=O)CCN4CCCCC4CO)cc3nc2c1` (configuration not stated) was tested. Which inhibition [1] did it give?
Answer: inactive

Question: What about the pIC50 (CH1) of the same compound?
Answer: 4.98

Question: And the pIC50 [2]?
Answer: 5.27

Question: What about the pIC50 (SK-OV-3) of the same compound?
Answer: 5.15

Question: What about the pIC50 (A2780) of the same compound?
Answer: 5.64

Question: And the inhibition [3]?
Answer: inactive

Question: What about the inhibition [4] of the same compound?
Answer: inactive

Question: For `O=C(CCN1CCCCCC1)Nc1ccc2cc3ccc(NC(=O)CCN4CCCCCC4)cc3nc2c1`, which inhibition [1] is on record?
Answer: inactive

Question: And the pIC50 (CH1)?
Answer: 5.73

Question: And the pIC50 [2]?
Answer: 5.51

Question: What about the pIC50 (SK-OV-3) of the same compound?
Answer: 5.60

Question: What about the pIC50 (A2780) of the same compound?
Answer: 5.96

Question: What about the inhibition [3] of the same compound?
Answer: inactive

Question: And the inhibition [4]?
Answer: inactive

Question: Which inhibition [1] does the source give for `O=C(CCN1CCCCC1CCO)Nc1ccc2cc3ccc(NC(=O)CCN4CCCCC4CCO)cc3nc2c1` (configuration not stated) here?
Answer: inactive

Question: What about the pIC50 (CH1) of the same compound?
Answer: 4.96

Question: And the pIC50 [2]?
Answer: 5.39

Question: And the pIC50 (SK-OV-3)?
Answer: 4.98

Question: And the pIC50 (A2780)?
Answer: 5.49

Question: And the inhibition [3]?
Answer: inactive

Question: What about the inhibition [4] of the same compound?
Answer: inactive

Question: With `O=C(CCN1CCOCC1)Nc1ccc2cc3ccc(NC(=O)CCN4CCOCC4)cc3nc2c1` as the compound, how does the inhibition [1] read?
Answer: inactive

Question: What about the pIC50 (CH1) of the same compound?
Answer: 4.82

Question: What about the pIC50 [2] of the same compound?
Answer: < 4.30

Question: What about the pIC50 (SK-OV-3) of the same compound?
Answer: 4.89

Question: What about the pIC50 (A2780) of the same compound?
Answer: 5.51

Question: What about the inhibition [3] of the same compound?
Answer: inactive

Question: And the inhibition [4]?
Answer: inactive

Question: Which results are given for `CC1CCCCN1CCC(=O)Nc1ccc2cc3ccc(NC(=O)CCN4CCCCC4C)cc3nc2c1` (configuration not stated)?
Answer: inhibition [1]: inactive; pIC50 (CH1): 5.64; pIC50 [2]: 5.59; pIC50 (SK-OV-3): 5.47; pIC50 (A2780): 5.76; inhibition [3]: inactive; inhibition [4]: inactive

Question: With `CCN(CC)CCC(=O)Nc1ccc2cc3ccc(NC(=O)CCN(CC)CC)cc3nc2c1` as the compound, how does the inhibition [1] read?
Answer: inactive

Question: What about the pIC50 (CH1) of the same compound?
Answer: 5.61

Question: And the pIC50 [2]?
Answer: 5.24

Question: And the pIC50 (SK-OV-3)?
Answer: 5.65

Question: And the pIC50 (A2780)?
Answer: 6.24

Question: What about the inhibition [3] of the same compound?
Answer: inactive

Question: And the inhibition [4]?
Answer: inactive

Question: How did the inhibition [1] turn out when `CCC1CCCCN1CCC(=O)Nc1ccc2cc3ccc(NC(=O)CCN4CCCCC4CC)cc3nc2c1` (configuration not stated) was run?
Answer: inactive

Question: What about the pIC50 (CH1) of the same compound?
Answer: 5.66

Question: What about the pIC50 [2] of the same compound?
Answer: 5.57

Question: And the pIC50 (SK-OV-3)?
Answer: 5.41

Question: What about the pIC50 (A2780) of the same compound?
Answer: 5.66

Question: And the inhibition [3]?
Answer: inactive

Question: What about the inhibition [4] of the same compound?
Answer: inactive

Question: How did the inhibition [1] turn out when `CC1CCN(CCC(=O)Nc2ccc3cc4ccc(NC(=O)CCN5CCC(C)CC5)cc4nc3c2)CC1` was run?
Answer: inactive

Question: And the pIC50 (CH1)?
Answer: 5.69

Question: And the pIC50 [2]?
Answer: 5.87

Question: What about the pIC50 (SK-OV-3) of the same compound?
Answer: 5.62

Question: And the pIC50 (A2780)?
Answer: 5.67

Question: And the inhibition [3]?
Answer: inactive

Question: What about the inhibition [4] of the same compound?
Answer: inactive

Question: Which inhibition [1] does the source give for `CC1(C)CC2CC(C)(CN2CCC(=O)Nc2ccc3cc4ccc(NC(=O)CCN5CC6(C)CC5CC(C)(C)C6)cc4nc3c2)C1` here?
Answer: inactive

Question: What about the pIC50 (CH1) of the same compound?
Answer: 6.27

Question: What about the pIC50 [2] of the same compound?
Answer: < 4.30

Question: What about the pIC50 (SK-OV-3) of the same compound?
Answer: 5.66

Question: And the pIC50 (A2780)?
Answer: 6.30

Question: And the inhibition [3]?
Answer: inactive

Question: And the inhibition [4]?
Answer: inactive

Question: What does the source list for `CC1CCCN(CCC(=O)Nc2ccc3cc4ccc(NC(=O)CCN5CCCC(C)C5)cc4nc3c2)C1` (configuration not stated)?
Answer: inhibition [1]: inactive; pIC50 (CH1): 5.66; pIC50 [2]: 5.36; pIC50 (SK-OV-3): 5.55; pIC50 (A2780): 5.68; inhibition [3]: inactive; inhibition [4]: inactive

Question: Which results are given for `CN(C)CCC(=O)Nc1ccc2cc3ccc(NC(=O)CCN(C)C)cc3nc2c1`?
Answer: inhibition [1]: inactive; pIC50 (CH1): 5.01; pIC50 [2]: 5.09; pIC50 (SK-OV-3): 5.60; pIC50 (A2780): 6.12; inhibition [3]: inactive; inhibition [4]: inactive

Question: Which results are given for `O=C(CCN1CCCCCCC1)Nc1ccc2cc3ccc(NC(=O)CCN4CCCCCCC4)cc3nc2c1`?
Answer: inhibition [1]: inactive; pIC50 (CH1): 5.66; pIC50 [2]: < 4.30; pIC50 (SK-OV-3): 5.64; pIC50 (A2780): 5.89; inhibition [3]: inactive; inhibition [4]: inactive

Question: How did the inhibition [1] turn out when `O=C(CCN1CCCCC1)Nc1ccc2cc3ccc(NC(=O)CCN4CCCCC4)cc3nc2c1` was run?
Answer: inactive

Question: And the pIC50 (CH1)?
Answer: 5.65

Question: And the pIC50 [2]?
Answer: 5.55

Question: What about the pIC50 (SK-OV-3) of the same compound?
Answer: 6.27

Question: And the pIC50 (A2780)?
Answer: 5.77

Question: And the inhibition [3]?
Answer: inactive

Question: What about the inhibition [4] of the same compound?
Answer: inactive

Question: Which inhibition [1] does the source give for `O=C(CCN1CCCC1)Nc1ccc2cc3ccc(NC(=O)CCN4CCCC4)cc3nc2c1` here?
Answer: inactive

Question: What about the pIC50 (CH1) of the same compound?
Answer: 5.09

Question: What about the pIC50 [2] of the same compound?
Answer: 5.28

Question: What about the pIC50 (SK-OV-3) of the same compound?
Answer: 5.59

Question: What about the pIC50 (A2780) of the same compound?
Answer: 5.58

Question: What about the inhibition [3] of the same compound?
Answer: inactive

Question: And the inhibition [4]?
Answer: inactive

Question: For `O=C(CCN1CCC(O)CC1)Nc1ccc2cc3ccc(NC(=O)CCN4CCC(O)CC4)cc3nc2c1`, which inhibition [1] is on record?
Answer: inactive

Question: And the pIC50 (CH1)?
Answer: 4.82

Question: What about the pIC50 [2] of the same compound?
Answer: 5.10

Question: What about the pIC50 (SK-OV-3) of the same compound?
Answer: 4.89

Question: And the pIC50 (A2780)?
Answer: 5.21

Question: And the inhibition [3]?
Answer: inactive

Question: What about the inhibition [4] of the same compound?
Answer: inactive

Question: With `O=C(CCN1CCC(Cc2ccccc2)CC1)Nc1ccc2cc3ccc(NC(=O)CCN4CCC(Cc5ccccc5)CC4)cc3nc2c1` as the compound, how does the inhibition [1] read?
Answer: inactive

Question: And the pIC50 (CH1)?
Answer: 6.96

Question: And the pIC50 [2]?
Answer: < 4.30

Question: What about the pIC50 (SK-OV-3) of the same compound?
Answer: 6.06

Question: What about the pIC50 (A2780) of the same compound?
Answer: 6.51

Question: What about the inhibition [3] of the same compound?
Answer: inactive

Question: And the inhibition [4]?
Answer: inactive
